Results on six molecules are retold here after US5319096A, “(1H-indol-1-yl)-2-(amino) acetamides and related (1H-indol-1-yl)-(aminoalkyl)amides, pharmaceutical composition and use” (Hoechst-Roussel Pharmaceuticals Inc., priority 1992, dated 1994).

Assay [1] deals with direct infusion of NMDA or quinolinate into the rat striatum. The settings on record: cited from earlier work.
The test system of assay [2] is striatal neurons, infusion of quinolinate. The settings on record: 100 mg/kg, i.p., 1 hour after infusion of quinolinate; cited from earlier work.
Assay [3] relates to global ischemia in the gerbil. Conditions: cited from earlier work.
For assay [4], the system named is NMDA-induced Striatal Lesion. Kind of assay: Protection Against NMDA-induced Striatal Lesion (% control enzyme activity, lesioned vs contralateral striatum). In kind it is in vivo, Male Sprague Dawley rats. Conditions: ip, NMDA 150 nanomoles, 7 days post surgery; for % Control Enzyme Activity ChAT: choline acetyltransferase; for % Control Enzyme Activity GAD: glutamic acid decarboxylase. The source says:
Glutamate, aspartate and other excitatory amino acids (EAA) are putative neurotransmitters at vertebrate CNS excitatory synapses. […] The neurotoxicity of EAA has led to the implication of their involvement in human neurodegenerative disorders such as Alzheimer's Disease. Subacute or chronic overexposure to endogenous neurotoxin may lead to the slow degeneration of neurons (Olney, J., Excitotoxic Amino Acids and Neuropsychiatric Disorders. Annu. Rev. Pharmacol. Toxicol. 30:47-71, 1990). […] The striatal lesion paradigm can be used to assess the neuroprotective potential of novel compounds.
Testing of the compounds was carried out as follows: Male Sprague Dawley rats (Charles River) are housed under standard laboratory conditions as outlined in the "Guide for the Care and Use of Laboratory Animals" (National Institutes of Health Publications No. 85-23, Revised 1985). Food and water were provided ad libitum; lights were on from 0600-1800 h. Sterile techniques were used during surgery.
Rats (250-320 g) were anesthetized with chloral hydrate (400 mg/kg i.p., 10 ml/kg) and mounted in a David Kopf® stereotaxic instrument. An incision was made in the scalp and the skull surface was exposed. All coordinates were taken from the point on the skull where bregma meets the midline suture. The adjustable incisor bar was set at 3.3 mm below horizontal but may be adjusted. A 1-2 mm burr hole in the skull was made with a dental drill 0.5 mm anterior to bregma and 3.0 mm lateral from the midline (Paxinos, G. and Watson, C., The Rat Brain in Stereotaxic Coordinates. New York: Academic Press, 2nd ed., 1986). […] The cannula remained in place for one minute before infusion began. A total volume of 1 μl of NMDA (150 nanomoles per μl) solution was infused slowly (0.2 μl/2 min, total time of infusion was 10 min). The cannula remained in place for 5 minutes and then was slowly withdrawn (approx. 0.1 mm every 12 sec). NMDA was dissolved in 0.1M sodium phosphate buffer, pH 7.4. An equally osmolar solution of sodium chloride was used as a control in the contralateral striatum. The burr hole was sealed with bone wax and the scalp sutured closed.
The animals were sacrificed by decapitation seven days following surgery. The striatum was dissected over ice. […]
The experimental compounds were dissolved in 0.9% NaCl or appropriate vehicle and administered i.p. either pre- and/or post-excitotoxin infusion. […] Analysis of variance was calculated by the Newman-Keuls test with the PHARM/PCS computer program (Tallarida, R. J. and Murray, R. B., Manual of Pharmacologic Calculations with Computer Programs, Springer-Verlag, New York, 1987).

In assay [5] the test system is neurodegeneration in the rat striatum caused by intracerebral infusion of NMDA. The settings on record: cited from earlier work.

Structures are written as SMILES. Where a name gives a salt, the structure may show the parent alone.

`O=C(O)c1cc(O)c2ccc(Cl)cc2n1` [7-Chlorokynurenate]: the neuroprotection entry in assay [1] is reported as “significant neuroprotection”.

Consider `O=C(O)C1CN(CCCP(=O)(O)O)CCN1` (stereo not drawn) [CPP], for which the “protection of striatal neurons” value in assay [2] is reported as “partial protection of striatal neurons”.

For the molecule `NC1CCN(O)C1=O` (stereo not drawn) [HA-966, 3-amino-1-hydroxypyrrolid-2-one], the neuroprotection result in assay [1] was “significant neuroprotection”.

`NS(=O)(=O)c1cccc2c1c([N+](=O)[O-])cc1nc(O)c(O)nc12` [NBQX, 2,3-Dihydroxy-6-nitro-7-sulfamoylbenzo(F)quinoxaline]: the “protection against global ischemia” value in assay [3] is “protects against global ischemia in the gerbil”.

For the molecule `NCC(=O)Nn1ccc2ccccc21` [[N-(1H-Indol-1-yl)-2-amino]acetamide hydrochloride], in assay [4] (100 mg/kg, pretreatment 30 min), the “% Control Enzyme Activity ChAT” value amounted to 68 % Control and the “% Control Enzyme Activity GAD” value stood at 63 % Control.

`C[C@]12N[C@H](Cc3ccccc31)c1ccccc12` [dizocilpine]: in assay [4] (10 mg/kg, pretreatment 60 min), the “% Control Enzyme Activity ChAT” value was found to be 104 % Control and the “% Control Enzyme Activity GAD” value came out at 110 % Control. The “protection against neurodegeneration in the rat striatum” value in assay [5] was “protected against neurodegeneration in the rat striatum”.
